Earlier results as cited in paper PMC8513935.

Tests used:
[1] = experimental, compiled by the authors from the literature (the ESI cites the sources)
[2] = derived by the authors as gas->solvent minus gas->water (a hypothetical dry solvent; the ESI), not a two-phase measurement

OC12CC3CC(CC(C3)C1)C2
log K of transfer, gas to solvent ([1]; Hexadecane, 25 C): 5.63 log10 K | log K of transfer, gas to solvent ([1]; Water, 25 C): 5.15 log10 K | log K of transfer, water to solvent ([2]; Hexadecane, 25 C): 0.484 log10 K

CCCCC
log K of transfer, gas to solvent ([1]; 1,2-Dichloroethane, 25 C): 1.99 log10 K | log K of transfer, gas to solvent ([1]; Acetonitrile, 25 C): 1.53 log10 K | log K of transfer, gas to solvent ([1]; Benzene, 25 C): 2.19 log10 K | log K of transfer, gas to solvent ([1]; Butan-1-ol, 25 C): 1.98 log10 K | log K of transfer, gas to solvent ([1]; Butan-2-ol, 25 C): 1.94 log10 K | log K of transfer, gas to solvent ([1]; Butanone, 25 C): 2.07 log10 K | log K of transfer, gas to solvent ([1]; Butyronitrile, 25 C): 1.92 log10 K | log K of transfer, gas to solvent ([1]; CCl4, 25 C): 2.36 log10 K | log K of transfer, gas to solvent ([1]; Chlorobenzene, 25 C): 2.43 log10 K | log K of transfer, gas to solvent ([1]; Chloroform, 25 C): 2.36 log10 K | log K of transfer, gas to solvent ([1]; Cyclohexane, 25 C): 2.57 log10 K | log K of transfer, gas to solvent ([1]; Cyclohexanone, 25 C): 1.98 log10 K | log K of transfer, gas to solvent ([1]; Di-n-butyl ether, 25 C): 2.33 log10 K | log K of transfer, gas to solvent ([1]; Dichloromethane, 25 C): 2.24 log10 K | log K of transfer, gas to solvent ([1]; Ethanol, 25 C): 1.78 log10 K | log K of transfer, gas to solvent ([1]; Heptan-1-ol, 25 C): 1.95 log10 K | log K of transfer, gas to solvent ([1]; Hexadecane, 25 C): 2.16 log10 K | log K of transfer, gas to solvent ([1]; Hexan-1-ol, 25 C): 1.97 log10 K | log K of transfer, gas to solvent ([1]; Hexane, 25 C): 2.44 log10 K | log K of transfer, gas to solvent ([1]; Methanol, 25 C): 1.66 log10 K | log K of transfer, gas to solvent ([1]; Octan-1-ol, 25 C): 1.95 log10 K | log K of transfer, gas to solvent ([1]; Pentan-1-ol, 25 C): 1.94 log10 K | log K of transfer, gas to solvent ([1]; Perfluoroalkane, 25 C): 1.55 log10 K | log K of transfer, gas to solvent ([1]; Propan-1-ol, 25 C): 1.81 log10 K | log K of transfer, gas to solvent ([1]; Propan-2-ol, 25 C): 1.85 log10 K | log K of transfer, gas to solvent ([1]; Propanone, 25 C): 1.98 log10 K | log K of transfer, gas to solvent ([1]; Tetrahydrofuran, 25 C): 2.33 log10 K | log K of transfer, gas to solvent ([1]; Toluene, 25 C): 2.3 log10 K | log K of transfer, gas to solvent ([1]; Water, 25 C): -1.7 log10 K | log K of transfer, water to solvent ([2]; 1,2-Dichloroethane, 25 C): 3.69 log10 K | log K of transfer, water to solvent ([2]; Acetone, 25 C): 3.68 log10 K | log K of transfer, water to solvent ([2]; Acetonitrile, 25 C): 3.23 log10 K | log K of transfer, water to solvent ([2]; Benzene, 25 C): 3.89 log10 K | log K of transfer, water to solvent ([2]; Butan-1-ol, 25 C): 3.68 log10 K | log K of transfer, water to solvent ([2]; Butan-2-ol, 25 C): 3.64 log10 K | log K of transfer, water to solvent ([2]; Butanone, 25 C): 3.77 log10 K | log K of transfer, water to solvent ([2]; Butyronitrile, 25 C): 3.62 log10 K | log K of transfer, water to solvent ([2]; CCl4, 25 C): 4.06 log10 K | log K of transfer, water to solvent ([2]; Chlorobenzene, 25 C): 4.13 log10 K | log K of transfer, water to solvent ([2]; Chloroform, 25 C): 4.06 log10 K | log K of transfer, water to solvent ([2]; Cyclohexane, 25 C): 4.27 log10 K | log K of transfer, water to solvent ([2]; Cyclohexanone, 25 C): 3.68 log10 K | log K of transfer, water to solvent ([2]; Di-n-butyl ether, 25 C): 4.03 log10 K | log K of transfer, water to solvent ([2]; Dichloromethane, 25 C): 3.94 log10 K | log K of transfer, water to solvent ([2]; Ethanol, 25 C): 3.48 log10 K | log K of transfer, water to solvent ([2]; Heptan-1-ol, 25 C): 3.65 log10 K | log K of transfer, water to solvent ([2]; Hexadecane, 25 C): 3.86 log10 K | log K of transfer, water to solvent ([2]; Hexan-1-ol, 25 C): 3.67 log10 K | log K of transfer, water to solvent ([2]; Hexane, 25 C): 4.14 log10 K | log K of transfer, water to solvent ([2]; Methanol, 25 C): 3.36 log10 K | log K of transfer, water to solvent ([2]; Octan-1-ol(dry), 25 C): 3.65 log10 K | log K of transfer, water to solvent ([2]; Pentan-1-ol, 25 C): 3.64 log10 K | log K of transfer, water to solvent ([2]; Perfluoroalkane, 25 C): 3.25 log10 K | log K of transfer, water to solvent ([2]; Propan-1-ol, 25 C): 3.51 log10 K | log K of transfer, water to solvent ([2]; Propan-2-ol, 25 C): 3.55 log10 K | log K of transfer, water to solvent ([2]; Tetrahydrofuran, 25 C): 4.03 log10 K | log K of transfer, water to solvent ([2]; Toluene, 25 C): 4.01 log10 K

c1ccc2ncccc2c1
log K of transfer, gas to solvent ([1]; Chloroform, 25 C): 6.98 log10 K | log K of transfer, gas to solvent ([1]; Hexadecane, 25 C): 5.45 log10 K | log K of transfer, gas to solvent ([1]; Water, 25 C): 4.2 log10 K | log K of transfer, water to solvent ([2]; Chloroform, 25 C): 2.78 log10 K | log K of transfer, water to solvent ([2]; Hexadecane, 25 C): 1.26 log10 K

Cc1ccncc1
log K of transfer, gas to solvent ([1]; CCl4, 25 C): 4.46 log10 K | log K of transfer, gas to solvent ([1]; Hexadecane, 25 C): 3.64 log10 K | log K of transfer, gas to solvent ([1]; Water, 25 C): 3.62 log10 K | log K of transfer, water to solvent ([2]; CCl4, 25 C): 0.84 log10 K | log K of transfer, water to solvent ([2]; Hexadecane, 25 C): 0.02 log10 K

Oc1cccc(F)c1
log K of transfer, gas to solvent ([1]; Hexadecane, 25 C): 3.84 log10 K | log K of transfer, gas to solvent ([1]; Water, 25 C): 4.58 log10 K | log K of transfer, water to solvent ([2]; Hexadecane, 25 C): -0.738 log10 K

CCCCCCCN
log K of transfer, gas to solvent ([1]; Hexadecane, 25 C): 4.15 log10 K | log K of transfer, gas to solvent ([1]; Water, 25 C): 2.78 log10 K | log K of transfer, water to solvent ([2]; Hexadecane, 25 C): 1.37 log10 K
